As a reminder, the inhibition is the change of the read-out against control, counted positive when it falls. The low end stands for a weak effect, the high end for a strong effect.

Where a name gives a salt, the structure may show the parent alone. Read-outs that look alike come from different tables or passages of the source.

For assay [1], the system named is histamine aerosol induced bronchoconstriction. The assay is described as follows: Bronchodilator Activity (protection of conscious guinea pigs against histamine aerosol). The format is in vivo. The conditions noted are these: for inhibition in vivo at 60 mg/kg: Cavia porcellus, 1 h, read-out: % Protection. On the procedure:
Subsequent to this administration, each animal is challenged with histamine aerosol. […] Immediately after the container is subjected to the histamine spray the animal is placed within it. At the end of one minute of exposure, the respiratory status, which is a reflection of bronchoconstriction, is evaluated. Evaluation levels are designated and scored as normal breathing (0), slight deepened breathing (1), labored breathing (2), severely labored breathing and […] (3) and unconsciousness (4). Each group of animals contains 8 to 10 individual and a control group containing the same approximate number is used. […] The dose, which is given orally, is 60 mg./kg. and the animals are challenged with histamine 60 minutes later.

Assay [2] concerns collagen induced platelet aggregation. The assay is described as follows: In Vitro Inhibition of Platelet Aggregation (collagen induced, rabbit platelet-rich plasma). It counts as cell-based. As to conditions: Oryctolagus cuniculus, 10 min; for inhibition at 60 µM: 6 × 10^^-5 mol./l.; for inhibition at 6 µM: 6 × 10^^-6 mol./l.; for inhibition at 600 µM: 6 × 10^^-4 mol./l. The method, then:
The ability of the compounds of the present invention to inhibit platelet aggregation in vitro is measured according to the method of Born, et al., J. Physiol., 168, 178 (1963) and comprises the following procedure: Anesthetized male rabbits are bled from a carotid artery into plastic centrifuge tubes containing 0.1 volume 3% sodium citrate. Platelet-rich plasma is separated by centrifugation at 100 G for 10 minutes at 20° C. […] After 10 minutes of incubation with the platelet-rich plasma at room temperature, collagen, a protein known to cause platelet aggregation, is added (0.27 ml. collagen/4 ml. plasma) and changes in the optical density are followed with a Spectronic 20 colorimeter attached to a Houston Instrument TY Recorder. Platelet aggregation is indicated by a decrease in optical density. The relative potency of the compounds of the present invention are thus rated on their ability to inhibit (percent) collagen induced platelet aggregation.

For assay [3] the test system is unchanged. Briefly: In Vivo Inhibition of Platelet Aggregation (collagen induced aggregation in plasma of dosed dogs). More on the design: species or system mongrel dogs. As to conditions: for Inhibition to Collagen, High: high collagen (1:20 dilution); for Inhibition to Collagen, Low: low collagen (1:40-50 dilution). The method, then:
The capacity of the compounds of the present invention to inhibit platelet aggregation in a modified in vivo test is measured by the following procedure: Unanesthetized fasted adult mongrel dogs of either sex are dosed orally (P.O.) or intravenously (I.V.) with the particular test compound. Blood samples are taken at hourly intervals and placed in plastic centrifuge tubes containing 0.1 volume 3% sodium citrate. Platelet-rich plasma is separated by centrifugation at 100 G for 10 minutes at 20° C. and treated with a collagen suspension in saline. The effect of two different levels of collagen concentration are examined; the first is a 1:20 dilution, i.e. 1 ml. of collagen suspension per 20 ml. of platelet-rich plasma (high dose), and the second, a 1:40-50 dilution (low dose). Changes in optical density are then followed with a Spectronic 20 colorimeter attached to a Houston Instrument TY Recorder. Platelet aggregation is indicated by a decrease in optical density. […] Measurements are carried out on the hourly samples, allowing for the determination of a duration of the initial effect.

Assay [4] has the same test system. The assay is described as follows: In vitro Inhibition of Platelet Aggregation in Human Plasma (collagen induced). It counts as cell-based. As to conditions: human platelet-rich plasma. The method, then:
Anesthetized male rabbits are bled from a carotid artery into plastic centrifuge tubes containing 0.1 volume 3% sodium citrate. Platelet-rich plasma is separated by centrifugation at 100 G for 10 minutes at 20° C. Plasma from 3 animals is pooled; 5 ml. samples are placed into clear plastic curvettes and stirred at 1000 rpm, followed by the addition of compounds of the present invention at levels of 6 × 10^^-4 , 10^^-5 and 10^^-6 moles/liter. After 10 minutes of incubation with the platelet-rich plasma at room temperature, collagen, a protein known to cause platelet aggregation, is added (0.27 ml. collagen/4 ml. plasma) and changes in the optical density are followed with a Spectronic 20 colorimeter attached to a Houston Instrument TY Recorder. Platelet aggregation is indicated by a decrease in optical density. The relative potency of the compounds of the present invention are thus rated on their ability to inhibit (percent) collagen induced platelet aggregation.
The procedure of Example XLV is repeated except that platelet-rich plasma from nine human volunteers is employed in place of rabbit plasma. 4-(Diethylamino)-6-phenylpyrimidine hydrochloride provides the following inhibition (%) of collagen induced platelet aggregation at the indicated concentrations: […]

[5] abbreviates: 60 mg./kg. oral, histamine challenge 60 minutes later.

Take `CCc1c(-c2ccc3ccccc3c2)ncnc1N(CC)CC` [Ar=2-naphthyl; R1=C2H5; R2=C2H5; R3=C2H5, 4-Diethylamino-5-ethyl-6-(2-naphthyl)pyrimidine hydrochloride]: the inhibition in vivo at 60 mg/kg in assay [1] (po) was found to be 47%.

In the case of `Cc1c(O)ncnc1-c1ccccc1` [R3=CH3], in assay [1] (setting [5]), the inhibition in vivo at 60 mg/kg was determined as 22%.

Take `CCN(CC)c1cc(-c2ccco2)ncn1` [Ar=2-furyl; R1=C2H5; R2=C2H5; R3=H, 4-Diethylamino-6-(2-furyl)pyrimidine hydrochloride]: the inhibition in vivo at 60 mg/kg in assay [1] (setting [5]) was 15%.

Turning to `CCc1c(-c2cccc(NC(C)=O)c2)ncnc1N(C)C`, the inhibition in vivo at 60 mg/kg in assay [1] (setting [5]) amounted to 10%.

Molecule `CCN(CC)c1cc(-c2ccc(OC)cc2)ncn1` [Ar=4-CH3OC6H4; R1=C2H5; R2=C2H5; R3=H, 4-diethylamino-6-(p-methoxyphenyl)pyrimidine] registered an inhibition at 60 µM in assay [2] of 86%. In assay [2], this molecule came in with an inhibition at 6 µM of 42%. Besides, the “Inhibition to Collagen, High” value is “None (none (0-15%))” in assay [3] (10 mg./kg. I.V.) and “Partial (partial (15-95%))” in assay [3] (40 mg./kg. P.O.). Also, the “Inhibition to Collagen, Low” value in assay [3] (10 mg./kg. I.V.) is “None (none (0-15%))”; in assay [3] (40 mg./kg. P.O.) it was “Complete (complete (95-100%))”. Further, the Duration is 1 h in assay [3] (40 mg./kg. P.O., line with high collagen result) and 4 h in assay [3] (40 mg./kg. P.O., line with low collagen result).

For `CCN(CC)c1cc(-c2cccc(NC(=O)C(C)C)c2)ncn1` [4-diethylamino-6-(m-isobutrylaminophenyl)pyrimidine], the inhibition in vivo at 60 mg/kg in assay [1] (po) is 22%.

In assay [2], `CCN(CC)c1cc(-c2cccc(NS(C)(=O)=O)c2)ncn1` returned an inhibition at 600 µM of 95%, an inhibition at 60 µM of 21% and an inhibition at 6 µM of 9%. Also, in assay [1] (setting [5]), the inhibition in vivo at 60 mg/kg worked out at 19%.

For `Oc1cc(-c2ccccc2)ncn1` [R3=H, 4-Hydroxy-6-phenylpyrimidine], in assay [1] (po), the inhibition in vivo at 60 mg/kg is 12%.

As for `CCCN(CCC)c1ncnc(-c2cccc(NC(C)=O)c2)c1C`, the inhibition in vivo at 60 mg/kg in assay [1] (setting [5]) was 17%.

In assay [2], `Cl.FC(F)(F)CNc1cc(-c2ccccc2)ncn1` [Ar=C6H5; R1=CF3CH2; R2=H; R3=H, 4-(2,2,2-Trifluoroethylamino)-6-phenylpyrimidine hydrochloride] showed an inhibition at 60 µM of 83% and an inhibition at 6 µM of 32%. In assay [3] (10 mg./kg. I.V.), the Duration worked out at 3 h and the “Inhibition to Collagen, High” value is “Complete (complete (95-100%))”. In assay [3] (25 mg./kg. P.O.), the Duration was 3 h and the “Inhibition to Collagen, High” value is reported as “Partial (partial (15-95%))”. For the same molecule, in assay [3] (35 mg./kg. P.O.), the Duration was found to be 4 h; the “Inhibition to Collagen, High” value is listed as “Complete (complete (95-100%))”; the “Inhibition to Collagen, Low” value is “Complete (complete (95-100%))”.

With `CCN(CC)c1ncnc(-c2cccc(NC(C)=O)c2)c1C`, the inhibition in vivo at 60 mg/kg in assay [1] (setting [5]) turned out to be 43%.

For `CCc1c(-c2cccc(NC(C)=O)c2)ncnc1N(CC)CC`, in assay [1] (setting [5]), the inhibition in vivo at 60 mg/kg came out at 35%.

Turning to `CCCc1c(-c2cccc(NC(C)=O)c2)ncnc1N(CC)CC`, the inhibition in vivo at 60 mg/kg in assay [1] (po) came to 29%.

Consider `CCCN(CCC)c1cc(-c2cccc(NC(C)=O)c2)ncn1` [4-di-n-propylamino-6-(m-acetylaminophenyl)-pyrimidine], for which, in assay [2], testing at 600 µM gave an inhibition of 88%, at 60 µM the inhibition was 29% and the inhibition at 6 µM is 22%. For the same molecule, the inhibition in vivo at 60 mg/kg in assay [1] (setting [5]) was 30%.

For the molecule `CC(C)c1c(O)ncnc1-c1ccccc1` [R3=i-C3H7], the inhibition in vivo at 60 mg/kg in assay [1] (po) is 16%.

Consider `CCc1c(O)ncnc1-c1ccccc1` [R3=C2H5, 4-hydroxy-5-ethyl-6-phenylpyrimidine], for which the inhibition in vivo at 60 mg/kg in assay [1] (setting [5]) is 62%. The “activity as a bronchodilator (in words)” value in assay [1] (guinea pig, in vivo) is given as “unexpected, outstanding activity as a bronchodilator”.

Regarding `CCCc1c(O)ncnc1-c1ccccc1` [R3=n-C3H7], in assay [1] (setting [5]), the inhibition in vivo at 60 mg/kg stood at 25%.

With `CCN(CC)c1cc(-c2ccc(NC(C)=O)cc2)ncn1` [Ar=4-CH3CONHC6H4; R1=C2H5; R2=C2H5; R3=H, 4-diethylamino-6-(p-acetylaminophenyl)pyrimidine], the inhibition in vivo at 60 mg/kg in assay [1] (po) stood at 56%.

Take `Cn1c(=O)c2[nH]cnc2n(C)c1=O` [theophylline, reference compound]: in assay [1] (po), the inhibition in vivo at 60 mg/kg amounted to 25%.

For `CCN(CC)c1cc(-c2cccc([N+](=O)[O-])c2)ncn1` [Ar=3-NO2C6H4; R1=C2H5; R2=C2H5; R3=H, 4-Diethylamino-6-(m-nitrophenyl)pyrimidine hydrochloride], in assay [2], testing at 600 µM gave an inhibition of 99%, the inhibition at 60 µM was found to be 93% and 6 µM produced 25% inhibition. In assay [1] (setting [5]), the inhibition in vivo at 60 mg/kg is 20%.

Consider `CCC(=O)Nc1cccc(-c2cc(N(CC)CC)ncn2)c1` [4-diethylamino-6-(m-propionylaminophenyl)pyrimidine], for which, in assay [2], 600 µM produced 99% inhibition, the inhibition at 60 µM came out at 82% and testing at 6 µM gave an inhibition of 13%. Also, in assay [1] (setting [5]), the inhibition in vivo at 60 mg/kg was 30%.

In the case of `CCN(CC)c1cc(-c2cccc(NC(C)=O)c2)ncn1` [Ar=3-CH3CONHC6H4; R1=C2H5; R2=C2H5; R3=H, 4-Diethylamino-6-(m-acetylaminopheny)pyrimidine hydrochloride], in assay [2], the inhibition at 60 µM stood at 16% and at 6 µM the inhibition was 14%. For the same molecule, the inhibition in vivo at 60 mg/kg in assay [1] (setting [5]) was determined as 40%.

Consider `CCN(CCO)c1cc(-c2ccccc2)ncn1.Cl` [Ar=C6H5; R1=HO(CH2)2; R2=C2H5; R3=H, 4-[Ethyl(2-hydroxyethyl)amino]-6-phenylpyrimidine hydrochloride], for which, in assay [2], the inhibition at 600 µM was 99%, the inhibition at 60 µM is 97% and the inhibition at 6 µM came out at 35%. For the same molecule, in assay [3] (10 mg./kg. I.V.), the Duration was 3 h; the “Inhibition to Collagen, High” value is “Complete (complete (95-100%))”; the “Inhibition to Collagen, Low” value was “Complete (complete (95-100%))”. Also, in assay [3] (25 mg./kg. P.O.), the Duration is 2 h; the “Inhibition to Collagen, High” value is reported as “Complete (complete (95-100%))”; the “Inhibition to Collagen, Low” value is recorded as “Complete (complete (95-100%))”.

Consider `CCN(CC)c1cc(-c2ccccc2)ncn1.Cl` [Ar=C6H5; R1=C2H5; R2=C2H5; R3=H, 4-Diethylamino-6-phenylpyrimidine hydrochloride], for which, in assay [2], the inhibition at 600 µM worked out at 99% and the inhibition at 6 µM was determined as 99%. The “Mean % Inhibition” value in assay [4] (6 × 10^^-4 mol./l.) was found to be 73%. The “Mean % Inhibition” value in assay [4] (6 × 10^^-5 mol./l.) stood at 59%. Besides, the “Mean % Inhibition” value in assay [4] (6 × 10^^-6 mol./l.) was found to be 52%. Moreover, the “Mean % Inhibition” value in assay [4] (6 × 10^^-7 mol./l.) is 15%. Also, in assay [3] (25 mg./kg. P.O.), the Duration is 5 h; the “Inhibition to Collagen, High” value is recorded as “Complete (complete (95-100%))”; the “Inhibition to Collagen, Low” value was “Complete (complete (95-100%))”.
